Legend:
Assay in all cases: KINOMEscan
Type in all cases: binding
MARK4 = molecular target: T1, MARK4 (Homo sapiens, UniProt Q96L34); conditions: MARK4, 1 uM
T1 construct: purchased Ambit KINOMEscan (DiscoverX)
Procedure, shortened: (§1)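 Panel profiling at one dose (1 μM) identifies kinases prevented from binding substrate by the test molecule.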

JNK2 = molecular target: T2, JNK2 (Homo sapiens, UniProt P45984); conditions: JNK2, 1 uM
T2 construct: purchased Ambit KINOMEscan (DiscoverX)
Procedure, shortened: as §1

LKB1 = molecular target: T3, LKB1 (Homo sapiens, UniProt Q15831); conditions: LKB1, 1 uM
T3 construct: purchased Ambit KINOMEscan (DiscoverX)
Procedure, shortened: as §1

ROCK1 = molecular target: T4, ROCK1 (Homo sapiens, UniProt Q13464); conditions: for % binding compared to no inhibitor control: ROCK1, 1 uM
T4 construct: purchased Ambit KINOMEscan (DiscoverX)
T4 sequence (Q13464 whole entry): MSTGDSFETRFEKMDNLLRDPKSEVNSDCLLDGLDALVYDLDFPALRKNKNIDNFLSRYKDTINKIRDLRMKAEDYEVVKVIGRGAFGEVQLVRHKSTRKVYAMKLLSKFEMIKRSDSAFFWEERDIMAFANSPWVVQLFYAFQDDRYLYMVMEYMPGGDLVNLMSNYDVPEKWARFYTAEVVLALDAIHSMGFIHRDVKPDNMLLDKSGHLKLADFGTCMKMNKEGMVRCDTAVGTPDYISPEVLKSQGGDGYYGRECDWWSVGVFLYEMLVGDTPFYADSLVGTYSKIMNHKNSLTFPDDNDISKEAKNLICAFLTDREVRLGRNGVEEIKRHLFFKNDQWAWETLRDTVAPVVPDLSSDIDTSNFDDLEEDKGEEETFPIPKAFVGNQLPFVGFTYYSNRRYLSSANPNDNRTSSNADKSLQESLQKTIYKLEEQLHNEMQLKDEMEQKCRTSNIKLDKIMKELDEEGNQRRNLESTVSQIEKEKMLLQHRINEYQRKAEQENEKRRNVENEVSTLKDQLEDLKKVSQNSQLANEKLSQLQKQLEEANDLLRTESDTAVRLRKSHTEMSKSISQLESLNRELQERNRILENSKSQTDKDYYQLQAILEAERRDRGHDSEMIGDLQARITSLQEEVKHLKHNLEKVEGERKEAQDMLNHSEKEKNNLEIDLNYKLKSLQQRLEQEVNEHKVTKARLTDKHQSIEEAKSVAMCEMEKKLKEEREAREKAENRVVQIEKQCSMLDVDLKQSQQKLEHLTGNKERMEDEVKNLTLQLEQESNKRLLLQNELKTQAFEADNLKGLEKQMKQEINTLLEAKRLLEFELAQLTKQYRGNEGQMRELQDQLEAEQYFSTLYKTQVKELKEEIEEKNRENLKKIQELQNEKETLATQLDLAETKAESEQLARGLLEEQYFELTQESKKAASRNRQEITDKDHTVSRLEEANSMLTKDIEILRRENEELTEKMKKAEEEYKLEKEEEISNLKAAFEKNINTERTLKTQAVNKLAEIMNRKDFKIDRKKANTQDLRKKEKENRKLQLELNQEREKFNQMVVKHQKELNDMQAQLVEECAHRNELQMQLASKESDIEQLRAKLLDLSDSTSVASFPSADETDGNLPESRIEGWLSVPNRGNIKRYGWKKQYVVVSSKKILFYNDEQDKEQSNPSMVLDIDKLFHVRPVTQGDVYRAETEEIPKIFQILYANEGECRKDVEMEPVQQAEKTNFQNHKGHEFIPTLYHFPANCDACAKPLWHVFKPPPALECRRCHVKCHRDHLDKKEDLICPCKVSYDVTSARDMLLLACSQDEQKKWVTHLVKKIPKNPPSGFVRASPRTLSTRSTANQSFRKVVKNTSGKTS
Procedure, shortened: as §1

AURKB = molecular target: T5, AURKB (Homo sapiens, UniProt Q96GD4); conditions: 1 uM
T5 construct: purchased Ambit KINOMEscan (DiscoverX)
Procedure, shortened: as §1

CLK2 = molecular target: T6, CLK2 (Homo sapiens, UniProt P49760); conditions: CLK2, 1 uM
T6 construct: purchased Ambit KINOMEscan (DiscoverX)
Procedure, shortened: as §1

CDKL3 = molecular target: T7, CDKL3 (Homo sapiens, UniProt Q8IVW4); conditions: CDKL3, 1 uM
T7 construct: purchased Ambit KINOMEscan (DiscoverX)
Procedure, shortened: as §1

SLK = molecular target: T8, SLK (Homo sapiens, UniProt Q9H2G2); conditions: 1 uM
T8 construct: purchased Ambit KINOMEscan (DiscoverX)
Procedure, shortened: as §1

PDPK1 = molecular target: T9, PDPK1 (Homo sapiens, UniProt O15530); conditions: PDPK1, 1 uM
T9 construct: purchased Ambit KINOMEscan (DiscoverX)
T9 sequence (O15530 whole entry): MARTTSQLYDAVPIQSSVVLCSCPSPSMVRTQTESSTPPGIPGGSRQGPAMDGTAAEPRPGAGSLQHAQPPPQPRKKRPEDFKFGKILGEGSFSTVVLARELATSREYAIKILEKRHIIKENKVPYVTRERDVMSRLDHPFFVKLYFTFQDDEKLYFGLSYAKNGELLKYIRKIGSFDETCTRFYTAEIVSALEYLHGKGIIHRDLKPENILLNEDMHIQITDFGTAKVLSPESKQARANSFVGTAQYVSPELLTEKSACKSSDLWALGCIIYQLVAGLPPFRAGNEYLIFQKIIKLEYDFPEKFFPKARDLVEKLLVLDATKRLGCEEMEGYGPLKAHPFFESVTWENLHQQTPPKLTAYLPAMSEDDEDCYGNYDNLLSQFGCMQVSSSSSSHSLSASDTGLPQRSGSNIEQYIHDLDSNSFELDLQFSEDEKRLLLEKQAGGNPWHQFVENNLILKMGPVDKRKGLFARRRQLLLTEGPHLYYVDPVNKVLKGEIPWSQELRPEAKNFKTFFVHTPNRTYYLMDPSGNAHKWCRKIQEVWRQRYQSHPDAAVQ
Procedure, shortened: as §1

KIT = molecular target: T10, KIT (Homo sapiens, UniProt P10721); conditions: 1 uM
T10 construct: purchased Ambit KINOMEscan (DiscoverX)
Procedure, shortened: as §1

MYLK = molecular target: T11, MYLK (Homo sapiens, UniProt Q15746); conditions: 1 uM
T11 construct: purchased Ambit KINOMEscan (DiscoverX)
Procedure, shortened: as §1

PAK6 = molecular target: T12, PAK6 (Homo sapiens, UniProt Q9NQU5); conditions: PAK6, 1 uM
T12 construct: purchased Ambit KINOMEscan (DiscoverX)
Procedure, shortened: as §1

ACVR2B = molecular target: T13, ACVR2B (Homo sapiens, UniProt Q13705); conditions: 1 uM
T13 construct: purchased Ambit KINOMEscan (DiscoverX)
Procedure, shortened: as §1

GRK1 = molecular target: T14, GRK1 (Homo sapiens, UniProt Q15835); conditions: GRK1, 1 uM
T14 construct: purchased Ambit KINOMEscan (DiscoverX)
T14 sequence (Q15835 whole entry): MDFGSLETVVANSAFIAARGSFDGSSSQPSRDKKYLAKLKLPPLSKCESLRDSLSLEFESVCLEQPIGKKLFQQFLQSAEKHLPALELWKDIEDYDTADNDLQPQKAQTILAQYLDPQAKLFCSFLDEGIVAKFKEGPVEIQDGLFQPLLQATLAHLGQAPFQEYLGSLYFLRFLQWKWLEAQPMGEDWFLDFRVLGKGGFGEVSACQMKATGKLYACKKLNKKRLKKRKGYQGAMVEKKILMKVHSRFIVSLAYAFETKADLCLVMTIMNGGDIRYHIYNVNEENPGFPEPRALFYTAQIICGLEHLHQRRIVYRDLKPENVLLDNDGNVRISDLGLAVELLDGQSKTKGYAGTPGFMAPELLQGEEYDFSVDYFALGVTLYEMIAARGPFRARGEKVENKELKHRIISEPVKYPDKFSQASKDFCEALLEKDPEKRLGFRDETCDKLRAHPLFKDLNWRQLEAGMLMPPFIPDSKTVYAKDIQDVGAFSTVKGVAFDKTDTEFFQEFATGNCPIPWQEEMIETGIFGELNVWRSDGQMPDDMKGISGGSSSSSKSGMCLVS
Procedure, shortened: as §1

EPHA2 = molecular target: T15, EPHA2 (Homo sapiens, UniProt P29317); conditions: EPHA2, 1 uM
T15 construct: purchased Ambit KINOMEscan (DiscoverX)
Procedure, shortened: as §1

GSK3A = molecular target: T16, GSK3A (Homo sapiens, UniProt P49840); conditions: for % binding compared to no inhibitor control: GSK3A, 1 uM
T16 construct: purchased Ambit KINOMEscan (DiscoverX)
T16 sequence (P49840 whole entry): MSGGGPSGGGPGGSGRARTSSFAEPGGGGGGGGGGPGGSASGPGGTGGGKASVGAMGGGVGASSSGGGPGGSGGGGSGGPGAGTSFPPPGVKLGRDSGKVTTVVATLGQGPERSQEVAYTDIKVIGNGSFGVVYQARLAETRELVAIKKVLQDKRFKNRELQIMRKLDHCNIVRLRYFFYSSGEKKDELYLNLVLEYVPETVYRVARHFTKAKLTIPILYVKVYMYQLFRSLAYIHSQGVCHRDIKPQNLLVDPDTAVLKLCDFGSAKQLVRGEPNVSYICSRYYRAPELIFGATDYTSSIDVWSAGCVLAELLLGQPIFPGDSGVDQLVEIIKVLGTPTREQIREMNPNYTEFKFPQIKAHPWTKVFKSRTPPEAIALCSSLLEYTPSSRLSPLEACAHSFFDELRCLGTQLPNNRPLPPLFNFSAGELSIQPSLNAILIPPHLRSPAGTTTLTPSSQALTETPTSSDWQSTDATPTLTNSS
Procedure, shortened: as §1

LIMK2 = molecular target: T17, LIMK2 (Homo sapiens, UniProt P53671); conditions: LIMK2, 1 uM
T17 construct: purchased Ambit KINOMEscan (DiscoverX)
Procedure, shortened: as §1

KIT(D816V) = molecular target: T18, KIT(D816V) (Homo sapiens, UniProt P10721, D816V); conditions: 1 uM
T18 construct: purchased Ambit KINOMEscan (DiscoverX)
Procedure, shortened: as §1

MAP3K1 = molecular target: T19, MAP3K1 (Homo sapiens, UniProt Q13233); conditions: MAP3K1, 1 uM
T19 construct: purchased Ambit KINOMEscan (DiscoverX)
Procedure, shortened: as §1

MYLK2 = molecular target: T20, MYLK2 (Homo sapiens, UniProt Q9H1R3); conditions: MYLK2, 1 uM
T20 construct: purchased Ambit KINOMEscan (DiscoverX)
Procedure, shortened: as §1

ERK4 = molecular target: T21, ERK4 (Homo sapiens, UniProt P31152); conditions: ERK4, 1 uM
T21 construct: purchased Ambit KINOMEscan (DiscoverX)
T21 sequence (P31152 whole entry): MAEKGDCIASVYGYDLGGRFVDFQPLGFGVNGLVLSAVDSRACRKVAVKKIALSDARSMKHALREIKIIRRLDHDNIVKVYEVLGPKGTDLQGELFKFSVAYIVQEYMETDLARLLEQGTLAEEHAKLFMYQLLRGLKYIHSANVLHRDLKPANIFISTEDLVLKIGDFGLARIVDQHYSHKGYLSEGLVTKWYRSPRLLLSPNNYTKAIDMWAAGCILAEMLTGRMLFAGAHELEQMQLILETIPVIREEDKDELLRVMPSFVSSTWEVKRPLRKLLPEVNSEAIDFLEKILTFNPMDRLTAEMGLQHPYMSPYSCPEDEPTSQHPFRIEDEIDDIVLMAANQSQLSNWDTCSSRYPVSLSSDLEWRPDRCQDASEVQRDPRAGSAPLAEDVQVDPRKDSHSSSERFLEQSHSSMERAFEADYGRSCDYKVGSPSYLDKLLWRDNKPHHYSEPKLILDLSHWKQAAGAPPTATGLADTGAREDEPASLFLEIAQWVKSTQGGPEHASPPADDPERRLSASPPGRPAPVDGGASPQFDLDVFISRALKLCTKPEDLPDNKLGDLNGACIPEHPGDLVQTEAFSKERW
Procedure, shortened: as §1

PIK3CA(H1047Y) = molecular target: T22, PIK3CA(H1047Y) (Homo sapiens, UniProt P42336, H1047Y); conditions: 1 uM
T22 construct: purchased Ambit KINOMEscan (DiscoverX)
Procedure, shortened: as §1

MLCK = molecular target: T23, MLCK (Homo sapiens, UniProt Q32MK0); conditions: 1 uM
T23 construct: purchased Ambit KINOMEscan (DiscoverX)
T23 sequence (Q32MK0 whole entry): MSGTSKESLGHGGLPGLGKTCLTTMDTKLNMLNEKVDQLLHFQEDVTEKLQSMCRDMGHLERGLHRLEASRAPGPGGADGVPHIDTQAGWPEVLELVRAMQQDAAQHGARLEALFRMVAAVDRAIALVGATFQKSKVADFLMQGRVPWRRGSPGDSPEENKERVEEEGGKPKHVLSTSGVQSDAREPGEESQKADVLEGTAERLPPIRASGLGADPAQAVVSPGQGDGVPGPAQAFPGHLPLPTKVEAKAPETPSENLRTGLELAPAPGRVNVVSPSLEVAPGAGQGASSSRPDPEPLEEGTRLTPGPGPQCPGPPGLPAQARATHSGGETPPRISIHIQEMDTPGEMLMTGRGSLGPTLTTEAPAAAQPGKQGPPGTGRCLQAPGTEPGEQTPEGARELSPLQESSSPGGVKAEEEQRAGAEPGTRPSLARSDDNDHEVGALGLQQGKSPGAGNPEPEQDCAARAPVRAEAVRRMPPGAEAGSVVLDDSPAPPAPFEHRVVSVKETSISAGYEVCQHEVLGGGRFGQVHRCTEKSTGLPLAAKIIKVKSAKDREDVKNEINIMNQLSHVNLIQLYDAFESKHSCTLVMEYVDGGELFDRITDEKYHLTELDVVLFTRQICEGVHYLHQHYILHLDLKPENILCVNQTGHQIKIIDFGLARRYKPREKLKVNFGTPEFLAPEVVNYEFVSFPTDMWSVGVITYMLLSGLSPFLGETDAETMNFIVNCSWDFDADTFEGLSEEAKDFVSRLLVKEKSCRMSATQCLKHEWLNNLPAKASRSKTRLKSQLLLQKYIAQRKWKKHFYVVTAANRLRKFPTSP
Procedure, shortened: as §1

TNK2 = molecular target: T24, TNK2 (Homo sapiens, UniProt Q07912); conditions: TNK2, 1 uM
T24 construct: purchased Ambit KINOMEscan (DiscoverX)
Procedure, shortened: as §1

TBK1 = molecular target: T25, TBK1 (Homo sapiens, UniProt Q9UHD2); conditions: TBK1, 1 uM
T25 construct: purchased Ambit KINOMEscan (DiscoverX)
Procedure, shortened: as §1

ERN1 = molecular target: T26, ERN1 (Homo sapiens, UniProt O75460); conditions: ERN1, 1 uM
T26 construct: purchased Ambit KINOMEscan (DiscoverX)
Procedure, shortened: as §1

FLT3(ITD) = conditions: 1 uM
Procedure, shortened: as §1

YSK1 = molecular target: T27, YSK1 (Homo sapiens, UniProt O00506); conditions: YSK1, 1 uM
T27 construct: purchased Ambit KINOMEscan (DiscoverX)
Procedure, shortened: as §1

TGFBR2 = molecular target: T28, TGFBR2 (Homo sapiens, UniProt P37173); conditions: TGFBR2, 1 uM
T28 construct: purchased Ambit KINOMEscan (DiscoverX)
Procedure, shortened: as §1

p38-alpha = molecular target: T29, p38-alpha (Homo sapiens, UniProt Q16539); conditions: 1 uM
T29 construct: purchased Ambit KINOMEscan (DiscoverX)
Procedure, shortened: as §1

WEE2 = molecular target: T30, WEE2 (Homo sapiens, UniProt P0C1S8); conditions: WEE2, 1 uM
T30 construct: purchased Ambit KINOMEscan (DiscoverX)
Procedure, shortened: as §1

TYRO3 = molecular target: T31, TYRO3 (Homo sapiens, UniProt Q06418); conditions: TYRO3, 1 uM
T31 construct: purchased Ambit KINOMEscan (DiscoverX)
Procedure, shortened: as §1

PKMYT1 = molecular target: T32, PKMYT1 (Homo sapiens, UniProt Q99640); conditions: PKMYT1, 1 uM
T32 construct: purchased Ambit KINOMEscan (DiscoverX)
Procedure, shortened: as §1

[1] = molecular target: T33, RPS6KA5(Kin.Dom.1-N-terminal) (Homo sapiens, UniProt O75582); conditions: 1 uM
T33 construct: RPS6KA5(Kin.Dom.1-N-terminal); purchased Ambit KINOMEscan (DiscoverX)
Procedure, shortened: as §1

[2] = molecular target: T34, ABL1(H396P)-nonphosphorylated (Homo sapiens, UniProt P00519, H396P); conditions: 1 uM
T34 construct: purchased Ambit KINOMEscan (DiscoverX)
Procedure, shortened: as §1

GCN2(Kin.Dom.2,S808G) = molecular target: T35, GCN2(Kin.Dom.2,S808G) (Homo sapiens, UniProt Q9P2K8, S808G); conditions: 1 uM
T35 construct: GCN2(Kin.Dom.2,S808G); purchased Ambit KINOMEscan (DiscoverX)
Procedure, shortened: as §1

FLT4 = molecular target: T36, FLT4 (Homo sapiens, UniProt P35916); conditions: FLT4, 1 uM
T36 construct: purchased Ambit KINOMEscan (DiscoverX)
Procedure, shortened: as §1

AMPK-alpha2 = molecular target: T37, AMPK-alpha2 (Homo sapiens, UniProt P54646); conditions: AMPK-alpha2, 1 uM
T37 construct: purchased Ambit KINOMEscan (DiscoverX)
T37 sequence (P54646 whole entry): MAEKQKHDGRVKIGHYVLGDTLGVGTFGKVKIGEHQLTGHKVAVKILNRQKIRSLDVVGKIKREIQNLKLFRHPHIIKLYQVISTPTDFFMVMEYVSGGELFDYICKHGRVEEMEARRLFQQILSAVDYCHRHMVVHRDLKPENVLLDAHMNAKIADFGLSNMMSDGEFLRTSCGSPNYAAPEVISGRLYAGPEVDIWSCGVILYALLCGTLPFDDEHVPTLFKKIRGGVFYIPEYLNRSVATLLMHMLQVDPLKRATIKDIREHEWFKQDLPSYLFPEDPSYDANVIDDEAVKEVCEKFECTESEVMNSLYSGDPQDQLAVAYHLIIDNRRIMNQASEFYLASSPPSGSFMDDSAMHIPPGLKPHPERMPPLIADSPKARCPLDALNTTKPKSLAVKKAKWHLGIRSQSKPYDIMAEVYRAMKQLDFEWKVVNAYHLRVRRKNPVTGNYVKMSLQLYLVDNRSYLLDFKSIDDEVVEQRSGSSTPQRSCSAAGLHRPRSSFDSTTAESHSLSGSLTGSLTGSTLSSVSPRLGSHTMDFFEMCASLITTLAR
Procedure, shortened: as §1

Row | Structure (SMILES) | % binding compared to no inhibitor control (MARK4) [%] | % binding compared to no inhibitor control (JNK2) [%] | % binding compared to no inhibitor control (LKB1) [%] | % binding compared to no inhibitor control (ROCK1) [%] | % binding compared to no inhibitor control (AURKB) [%] | % binding compared to no inhibitor control (CLK2) [%] | % binding compared to no inhibitor control (CDKL3) [%] | % binding compared to no inhibitor control (SLK) [%] | % binding compared to no inhibitor control (PDPK1) [%] | % binding compared to no inhibitor control (KIT) [%] | % binding compared to no inhibitor control (MYLK) [%] | % binding compared to no inhibitor control (PAK6) [%] | % binding compared to no inhibitor control (ACVR2B) [%] | % binding compared to no inhibitor control (GRK1) [%] | % binding compared to no inhibitor control (EPHA2) [%] | % binding compared to no inhibitor control (GSK3A) [%] | % binding compared to no inhibitor control (LIMK2) [%] | % binding compared to no inhibitor control (KIT(D816V)) [%] | % binding compared to no inhibitor control (MAP3K1) [%] | % binding compared to no inhibitor control (MYLK2) [%] | further results
1 | COc1ccc(-c2cc3nccn3c(Nc3ncccc3C(N)=O)n2)cc1OC.Cl.Cl [BAY61-3606, 2-[7-(3,4-dimethoxyphenyl)-imidazo [1,2-c]pyrimidin-5-ylamino] nicotinamide dihydrochloride, reference compound] | 88 | 100 | 95 | 3.2 | 69 | 12 | 100 | 58 | 99 | 8.4 | 55 | 65 | 77 | 65 | 100 | 17 | 98 | 4.7 | 100 | 86 | % inhibition ATP binding (ROCK1; ROCK1, KINOMEscan, 1 μM): 96.8%; % inhibition ATP binding (GSK3A; GSK3α, KINOMEscan, 1 μM): 83%; % binding compared to no inhibitor control (ERK4): 87%; % binding compared to no inhibitor control (PIK3CA(H1047Y)): 80%; % binding compared to no inhibitor control (MLCK): 100%; % binding compared to no inhibitor control (TNK2): 96%; % binding compared to no inhibitor control (TBK1): 47%; % binding compared to no inhibitor control (ERN1): 72%; % binding compared to no inhibitor control (FLT3(ITD)): 2.1%; % binding compared to no inhibitor control (YSK1): 53%; % binding compared to no inhibitor control (TGFBR2): 31%; % binding compared to no inhibitor control (p38-alpha): 100%; % binding compared to no inhibitor control (WEE2): 100%; % binding compared to no inhibitor control (TYRO3): 94%; % binding compared to no inhibitor control (PKMYT1): 88%; % binding compared to no inhibitor control [1]: 90%; % binding compared to no inhibitor control [2]: 96%; % binding compared to no inhibitor control (GCN2(Kin.Dom.2,S808G)): 54%; % binding compared to no inhibitor control (FLT4): 100%; % binding compared to no inhibitor control (AMPK-alpha2): 83%
2 | COc1ccccc1Nc1nc(-c2ccc(OC)c(OC)c2)cc2nccn12 [BAY derivative 6] | 75 | 100 | 72 | 81 | 68 | 63 | 100 | 28 | 100 | 60 | 100 | 99 | 100 | 100 | 89 | 100 | 89 | 22 | 100 | 89 | % binding compared to no inhibitor control (ERK4): 100%; % binding compared to no inhibitor control (PIK3CA(H1047Y)): 100%; % binding compared to no inhibitor control (MLCK): 100%; % binding compared to no inhibitor control (TNK2): 53%; % binding compared to no inhibitor control (TBK1): 100%; % binding compared to no inhibitor control (ERN1): 100%; % binding compared to no inhibitor control (FLT3(ITD)): 82%; % binding compared to no inhibitor control (YSK1): 82%; % binding compared to no inhibitor control (TGFBR2): 100%; % binding compared to no inhibitor control (p38-alpha): 95%; % binding compared to no inhibitor control (WEE2): 100%; % binding compared to no inhibitor control (TYRO3): 67%; % binding compared to no inhibitor control (PKMYT1): 95%; % binding compared to no inhibitor control [1]: 89%; % binding compared to no inhibitor control [2]: 92%; % binding compared to no inhibitor control (GCN2(Kin.Dom.2,S808G)): 99%; % binding compared to no inhibitor control (FLT4): 86%; % binding compared to no inhibitor control (AMPK-alpha2): 100%

Reference: article PMC3399817 (PLoS ONE, 2012)
